Test results reported in ChEMBL document CHEMBL4507299, “Data for DCP probe PF-04554878” (2021).

Columns and labels:
[1] = biological target: Insulin receptor (Homo sapiens) (UniProt P06213); assay: INSR Invitrogen kinase activity assay; conditions: Compound concentration 1.0 uM
[2] = biological target: Vascular endothelial growth factor receptor 1 (Homo sapiens, UniProt P17948); assay: Cerep profiling assay (FLT1); parameters: compound concentration 10 uM
[3] = biological target: Tyrosine-protein kinase BTK (Homo sapiens) (UniProt Q06187); assay: BTK Invitrogen kinase activity assay; conditions: Compound concentration 1.0 uM
[4] = biological target: Serine/threonine-protein kinase 17B (Homo sapiens) (UniProt O94768)
[5] = biological target: Serine/threonine-protein kinase MRCK alpha (Homo sapiens) (UniProt Q5VT25)
[6] = biological target: Serine/threonine-protein kinase PAK 4 (Homo sapiens) (UniProt O96013); assay: PAK4 Invitrogen kinase activity assay; conditions: Compound concentration 1.0 uM
[7] = system: Receptor-type tyrosine-protein kinase FLT3 (Homo sapiens), P36888 [UNDEFINED MUTATION]
[8] = biological target: Cyclin-dependent kinase-like 5 (Homo sapiens) (UniProt O76039)
[9] = biological target: Casein kinase II subunit alpha (Homo sapiens) (UniProt P68400); assay: CK2 Invitrogen kinase activity assay; conditions: Compound concentration 1.0 uM
[10] = biological target: Ribosomal protein S6 kinase alpha-2 (Homo sapiens) (UniProt Q15349)
[11] = biological target: CDK6/cyclin D3 (Homo sapiens) (UniProt P30281+Q00534); assay: CDK6/cyclinD3 Invitrogen kinase activity assay; assay type: protein-complex assay; conditions: Compound concentration 1.0 uM
[12] = biological target: Vascular endothelial growth factor receptor 2 (Homo sapiens) (UniProt P35968); assay: VEGFR2/Flk1 Invitrogen kinase activity assay; conditions: Compound concentration 1.0 uM
[13] = biological target: Tyrosine-protein kinase Fgr (Homo sapiens) (UniProt P09769)
[14] = biological target: T1, Serine/threonine-protein kinase Sgk1 (Homo sapiens) (UniProt O00141); assay: SGK Invitrogen kinase activity assay; conditions: Compound concentration 1.0 uM
T1 sequence (whole entry): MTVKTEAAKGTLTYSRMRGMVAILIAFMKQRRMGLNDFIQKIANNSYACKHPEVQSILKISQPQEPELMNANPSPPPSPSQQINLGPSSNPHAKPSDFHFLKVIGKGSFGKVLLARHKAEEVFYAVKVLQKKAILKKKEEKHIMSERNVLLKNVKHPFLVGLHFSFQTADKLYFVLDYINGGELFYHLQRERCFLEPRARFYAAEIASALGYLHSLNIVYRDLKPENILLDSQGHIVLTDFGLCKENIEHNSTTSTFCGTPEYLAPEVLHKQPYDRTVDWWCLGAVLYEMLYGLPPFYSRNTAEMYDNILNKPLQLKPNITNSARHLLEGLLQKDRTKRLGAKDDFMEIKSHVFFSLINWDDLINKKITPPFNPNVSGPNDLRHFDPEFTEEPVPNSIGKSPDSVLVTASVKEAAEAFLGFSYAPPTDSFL

[15] = biological target: Protein kinase C beta type (Homo sapiens) (UniProt P05771); assay: PKCbeta II Invitrogen kinase activity assay; conditions: Compound concentration 1.0 uM
[16] = biological target: Interleukin-1 receptor-associated kinase 1 (Homo sapiens) (UniProt P51617)
[17] = biological target: Ribosomal protein S6 kinase alpha-6 (Homo sapiens) (UniProt Q9UK32)
[18] = biological target: Tyrosine-protein kinase JAK2 (Homo sapiens) (UniProt O60674)
[19] = biological target: Tyrosine-protein kinase receptor TYRO3 (Homo sapiens) (UniProt Q06418)
[20] = system: Ribosomal protein S6 kinase beta-1 (Homo sapiens), P23443 [UNDEFINED MUTATION]; assay: S6K T389D D3E Invitrogen kinase activity assay; conditions: Compound concentration 1.0 uM
[21] = biological target: 3-phosphoinositide-dependent protein kinase 1 (Homo sapiens) (UniProt O15530); assay: PDK1 Invitrogen kinase activity assay; conditions: Compound concentration 1.0 uM
[22] = biological target: Serine/threonine-protein kinase Sgk3 (Homo sapiens) (UniProt Q96BR1)
[23] = biological target: T2, Serine/threonine-protein kinase 3 (Homo sapiens) (UniProt Q13188); assay: MST2 Invitrogen kinase activity assay; conditions: Compound concentration 1.0 uM
T2 sequence (whole entry): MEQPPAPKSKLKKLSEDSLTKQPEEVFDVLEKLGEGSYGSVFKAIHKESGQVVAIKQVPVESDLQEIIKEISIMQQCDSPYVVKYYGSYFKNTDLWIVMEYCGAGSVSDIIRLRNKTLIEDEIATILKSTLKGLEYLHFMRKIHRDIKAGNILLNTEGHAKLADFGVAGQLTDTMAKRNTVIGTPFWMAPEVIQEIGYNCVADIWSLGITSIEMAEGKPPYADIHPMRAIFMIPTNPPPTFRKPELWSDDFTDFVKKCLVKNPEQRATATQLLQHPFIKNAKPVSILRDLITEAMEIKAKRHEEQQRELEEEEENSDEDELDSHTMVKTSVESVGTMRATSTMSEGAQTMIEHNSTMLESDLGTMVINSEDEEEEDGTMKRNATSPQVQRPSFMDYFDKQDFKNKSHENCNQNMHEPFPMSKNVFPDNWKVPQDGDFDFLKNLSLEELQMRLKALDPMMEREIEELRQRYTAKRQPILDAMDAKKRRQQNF

[24] = biological target: Serine/threonine-protein kinase LATS1 (Homo sapiens) (UniProt O95835)
[25] = biological target: Kappa-type opioid receptor (Homo sapiens) (UniProt P41145); conditions: Compound concentration 10.0 uM
[26] = biological target: Sodium-dependent dopamine transporter (Homo sapiens) (UniProt Q01959); conditions: Compound concentration 10.0 uM
[27] = biological target: RAC-beta serine/threonine-protein kinase (Homo sapiens) (UniProt P31751)
[28] = biological target: Serine/threonine-protein kinase Chk2 (Homo sapiens) (UniProt O96017); assay: CHK2 Invitrogen kinase activity assay; conditions: Compound concentration 1.0 uM
[29] = biological target: Serine/threonine-protein kinase Sgk2 (Homo sapiens) (UniProt Q9HBY8)
[30] = biological target: Serine/threonine-protein kinase OSR1 (Homo sapiens) (UniProt O95747)
[31] = biological target: Mitogen-activated protein kinase kinase kinase kinase 4 (Homo sapiens) (UniProt O95819); assay: MAP4K4 Invitrogen kinase activity assay; conditions: Compound concentration 1.0 uM
[32] = biological target: Mu-type opioid receptor (Homo sapiens) (UniProt P35372); conditions: Compound concentration 10.0 uM
Focal adhesion kinase 1 = Focal adhesion kinase 1 (Homo sapiens, UniProt Q05397); assay: Binding assay (PTK2)
[33] = biological target: 5-hydroxytryptamine receptor 1D (Homo sapiens) (UniProt P28221); conditions: Compound concentration 10.0 uM
[34] = Compound concentration 100.0 nM
[35] = Compound concentration 1000.0 nM

Chain of Ribosomal protein S6 kinase alpha-6 (Homo sapiens) (Q9UK32 whole entry): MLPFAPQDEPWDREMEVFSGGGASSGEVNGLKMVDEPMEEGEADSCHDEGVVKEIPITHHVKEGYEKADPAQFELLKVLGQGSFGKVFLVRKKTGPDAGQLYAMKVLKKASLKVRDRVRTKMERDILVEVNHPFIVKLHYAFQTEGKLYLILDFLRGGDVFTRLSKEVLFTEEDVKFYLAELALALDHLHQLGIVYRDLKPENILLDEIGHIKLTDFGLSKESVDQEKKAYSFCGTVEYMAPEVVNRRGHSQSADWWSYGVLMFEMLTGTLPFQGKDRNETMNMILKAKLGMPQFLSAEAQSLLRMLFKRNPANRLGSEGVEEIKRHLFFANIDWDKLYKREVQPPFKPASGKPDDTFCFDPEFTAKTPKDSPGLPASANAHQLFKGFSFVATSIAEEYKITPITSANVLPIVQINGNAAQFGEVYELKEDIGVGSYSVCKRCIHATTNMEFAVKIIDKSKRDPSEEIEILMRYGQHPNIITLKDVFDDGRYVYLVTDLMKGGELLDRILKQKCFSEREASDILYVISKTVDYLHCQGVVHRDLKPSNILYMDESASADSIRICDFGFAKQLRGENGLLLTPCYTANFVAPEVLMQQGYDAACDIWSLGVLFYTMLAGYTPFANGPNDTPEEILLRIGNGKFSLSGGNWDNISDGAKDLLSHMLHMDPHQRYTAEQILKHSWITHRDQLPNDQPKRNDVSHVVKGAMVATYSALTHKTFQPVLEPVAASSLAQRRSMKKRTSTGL
Chain of Serine/threonine-protein kinase MRCK alpha (Homo sapiens) (Q5VT25 whole entry): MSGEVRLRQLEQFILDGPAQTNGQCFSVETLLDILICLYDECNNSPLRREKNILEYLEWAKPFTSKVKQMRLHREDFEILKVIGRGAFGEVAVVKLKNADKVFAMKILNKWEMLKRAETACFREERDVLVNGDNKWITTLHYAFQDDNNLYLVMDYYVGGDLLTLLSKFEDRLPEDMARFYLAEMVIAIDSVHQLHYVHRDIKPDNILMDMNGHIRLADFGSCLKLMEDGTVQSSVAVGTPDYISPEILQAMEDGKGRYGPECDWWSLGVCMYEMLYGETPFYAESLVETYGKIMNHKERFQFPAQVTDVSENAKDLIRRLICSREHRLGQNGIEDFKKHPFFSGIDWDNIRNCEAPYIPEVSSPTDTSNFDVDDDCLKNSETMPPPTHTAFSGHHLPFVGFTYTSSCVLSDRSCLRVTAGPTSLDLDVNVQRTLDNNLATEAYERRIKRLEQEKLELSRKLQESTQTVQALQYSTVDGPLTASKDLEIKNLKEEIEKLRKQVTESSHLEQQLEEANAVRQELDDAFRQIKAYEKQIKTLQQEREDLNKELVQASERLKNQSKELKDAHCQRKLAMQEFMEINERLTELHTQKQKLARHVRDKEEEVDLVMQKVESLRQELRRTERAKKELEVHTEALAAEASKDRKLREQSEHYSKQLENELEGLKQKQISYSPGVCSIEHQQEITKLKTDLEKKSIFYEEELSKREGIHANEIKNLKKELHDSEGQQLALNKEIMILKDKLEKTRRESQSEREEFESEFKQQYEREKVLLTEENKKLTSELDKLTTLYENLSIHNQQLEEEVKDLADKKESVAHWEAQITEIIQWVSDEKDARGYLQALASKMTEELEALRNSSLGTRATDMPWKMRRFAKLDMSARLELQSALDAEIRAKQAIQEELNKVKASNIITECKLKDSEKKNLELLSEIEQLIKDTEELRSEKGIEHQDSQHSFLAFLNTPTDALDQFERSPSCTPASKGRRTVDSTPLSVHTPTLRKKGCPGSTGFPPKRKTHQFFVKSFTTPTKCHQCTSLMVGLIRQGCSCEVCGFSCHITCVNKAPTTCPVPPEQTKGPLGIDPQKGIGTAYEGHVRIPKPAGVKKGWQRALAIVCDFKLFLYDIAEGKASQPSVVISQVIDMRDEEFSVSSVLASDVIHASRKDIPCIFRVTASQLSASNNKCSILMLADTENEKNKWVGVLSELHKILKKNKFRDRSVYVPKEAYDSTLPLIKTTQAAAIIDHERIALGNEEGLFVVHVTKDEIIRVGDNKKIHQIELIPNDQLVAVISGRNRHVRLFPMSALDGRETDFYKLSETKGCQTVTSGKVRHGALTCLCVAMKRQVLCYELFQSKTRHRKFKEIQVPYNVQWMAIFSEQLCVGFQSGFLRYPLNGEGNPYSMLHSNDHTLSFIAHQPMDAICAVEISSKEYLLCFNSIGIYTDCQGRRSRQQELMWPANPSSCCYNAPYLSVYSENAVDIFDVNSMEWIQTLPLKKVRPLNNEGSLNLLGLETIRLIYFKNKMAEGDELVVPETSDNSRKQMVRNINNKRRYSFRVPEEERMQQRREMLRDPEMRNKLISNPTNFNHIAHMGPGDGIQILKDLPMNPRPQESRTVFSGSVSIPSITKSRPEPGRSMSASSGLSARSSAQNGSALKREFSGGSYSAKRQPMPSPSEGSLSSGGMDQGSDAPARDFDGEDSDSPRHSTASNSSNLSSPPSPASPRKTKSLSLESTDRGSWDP
Chain of Receptor-type tyrosine-protein kinase FLT3 (Homo sapiens), P36888 [UNDEFINED MUTATION] (P36888 whole entry, looked up, change not shown): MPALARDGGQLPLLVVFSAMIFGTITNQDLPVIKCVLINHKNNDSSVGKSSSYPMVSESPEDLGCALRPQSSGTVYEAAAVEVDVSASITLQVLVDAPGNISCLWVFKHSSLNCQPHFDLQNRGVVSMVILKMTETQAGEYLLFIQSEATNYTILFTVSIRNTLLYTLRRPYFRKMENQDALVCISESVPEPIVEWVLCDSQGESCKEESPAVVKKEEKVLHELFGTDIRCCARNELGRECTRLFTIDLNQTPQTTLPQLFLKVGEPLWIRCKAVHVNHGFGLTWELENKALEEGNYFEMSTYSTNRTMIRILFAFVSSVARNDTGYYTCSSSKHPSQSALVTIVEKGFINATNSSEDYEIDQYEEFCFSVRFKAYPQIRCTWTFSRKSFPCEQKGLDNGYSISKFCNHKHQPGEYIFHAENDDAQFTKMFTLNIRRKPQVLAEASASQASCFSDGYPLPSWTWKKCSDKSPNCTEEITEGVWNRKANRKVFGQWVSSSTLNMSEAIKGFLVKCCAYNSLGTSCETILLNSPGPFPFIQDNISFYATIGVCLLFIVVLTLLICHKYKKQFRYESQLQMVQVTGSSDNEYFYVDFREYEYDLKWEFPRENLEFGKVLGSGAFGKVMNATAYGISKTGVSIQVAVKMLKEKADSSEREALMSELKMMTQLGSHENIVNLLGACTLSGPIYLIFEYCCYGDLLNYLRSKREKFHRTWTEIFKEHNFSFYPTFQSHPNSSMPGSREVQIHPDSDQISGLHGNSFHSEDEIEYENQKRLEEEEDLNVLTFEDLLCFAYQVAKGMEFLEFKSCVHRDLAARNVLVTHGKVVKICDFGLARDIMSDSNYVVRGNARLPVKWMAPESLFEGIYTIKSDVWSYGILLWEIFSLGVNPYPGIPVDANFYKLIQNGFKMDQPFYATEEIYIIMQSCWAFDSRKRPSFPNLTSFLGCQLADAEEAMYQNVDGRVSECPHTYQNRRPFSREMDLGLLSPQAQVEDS
Chain of Interleukin-1 receptor-associated kinase 1 (Homo sapiens) (P51617 whole entry, looked up): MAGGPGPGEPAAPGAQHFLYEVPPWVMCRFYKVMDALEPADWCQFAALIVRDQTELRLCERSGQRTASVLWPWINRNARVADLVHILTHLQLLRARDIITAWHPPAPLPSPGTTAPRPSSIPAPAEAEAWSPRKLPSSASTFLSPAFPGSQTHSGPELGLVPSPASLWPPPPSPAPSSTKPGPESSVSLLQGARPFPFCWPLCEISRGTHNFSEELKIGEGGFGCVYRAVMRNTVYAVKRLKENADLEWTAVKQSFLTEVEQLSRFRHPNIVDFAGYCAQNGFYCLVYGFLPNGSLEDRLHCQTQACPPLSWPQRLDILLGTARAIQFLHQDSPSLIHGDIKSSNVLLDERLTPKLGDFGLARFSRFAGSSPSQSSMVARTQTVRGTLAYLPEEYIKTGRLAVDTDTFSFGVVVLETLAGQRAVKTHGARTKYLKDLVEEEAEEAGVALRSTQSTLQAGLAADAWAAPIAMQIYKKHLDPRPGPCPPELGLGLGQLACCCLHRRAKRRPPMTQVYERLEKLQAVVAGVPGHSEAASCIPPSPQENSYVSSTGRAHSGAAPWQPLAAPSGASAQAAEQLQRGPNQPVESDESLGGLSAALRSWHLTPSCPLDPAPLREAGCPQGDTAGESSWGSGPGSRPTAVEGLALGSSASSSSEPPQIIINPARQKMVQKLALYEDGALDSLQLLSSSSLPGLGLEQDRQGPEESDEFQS
Chain of Tyrosine-protein kinase Fgr (Homo sapiens) (P09769 2-529 limits assumed): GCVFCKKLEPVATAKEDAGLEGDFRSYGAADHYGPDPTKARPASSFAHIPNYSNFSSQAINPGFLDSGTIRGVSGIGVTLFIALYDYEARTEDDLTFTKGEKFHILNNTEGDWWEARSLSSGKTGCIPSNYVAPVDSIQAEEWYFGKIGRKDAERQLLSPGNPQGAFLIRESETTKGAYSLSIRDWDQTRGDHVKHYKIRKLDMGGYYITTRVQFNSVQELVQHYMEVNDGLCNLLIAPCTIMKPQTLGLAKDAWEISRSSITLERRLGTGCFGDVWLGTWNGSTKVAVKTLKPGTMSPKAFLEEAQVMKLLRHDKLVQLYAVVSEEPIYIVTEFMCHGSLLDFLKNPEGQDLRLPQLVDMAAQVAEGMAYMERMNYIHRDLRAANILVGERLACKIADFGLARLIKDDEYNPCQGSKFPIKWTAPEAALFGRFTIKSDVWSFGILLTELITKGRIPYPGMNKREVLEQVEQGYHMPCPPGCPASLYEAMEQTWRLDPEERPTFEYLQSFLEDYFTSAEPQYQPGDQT
Chain of Serine/threonine-protein kinase Sgk2 (Homo sapiens) (Q9HBY8 whole entry): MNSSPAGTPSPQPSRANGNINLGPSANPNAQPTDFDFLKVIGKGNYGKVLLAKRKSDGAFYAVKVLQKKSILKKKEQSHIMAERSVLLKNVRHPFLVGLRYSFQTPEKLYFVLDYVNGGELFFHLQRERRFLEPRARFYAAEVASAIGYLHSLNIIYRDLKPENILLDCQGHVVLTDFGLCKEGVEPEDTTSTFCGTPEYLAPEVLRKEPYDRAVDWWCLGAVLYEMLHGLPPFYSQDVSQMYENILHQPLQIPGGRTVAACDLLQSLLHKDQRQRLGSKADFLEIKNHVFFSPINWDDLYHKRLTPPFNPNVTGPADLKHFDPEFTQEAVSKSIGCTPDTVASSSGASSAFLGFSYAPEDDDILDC

CNC(=O)c1ccc(Nc2ncc(C(F)(F)F)c(NCc3nccnc3N(C)S(C)(=O)=O)n2)cc1 [DEFACTINIB]
inhibition [1]: 50% | IC50 [2]: 2.5 µM (not active) | inhibition [3]: 14% | residual activity [4, 34]: 100% | residual activity [5, 34]: 98% | inhibition [6]: 69% | residual activity [7, 34]: 9% | residual activity [8, 34]: 100% | inhibition [9]: 43% | residual activity [10, 34]: 77% | inhibition [11]: 13% | inhibition [12]: 68% | residual activity [13, 34]: 81% | inhibition [14]: 30% | inhibition [15]: 15% | residual activity [16, 34]: 77% | residual activity [17, 34]: 49% | residual activity [18, 34]: 4.8% | residual activity [19, 34]: 100% | inhibition [20]: 18% | inhibition [21]: 25% | residual activity [22, 34]: 85% | inhibition [23]: 60% | residual activity [24, 34]: 96% | inhibition [25]: 10.8% | inhibition [26]: -6.06% | residual activity [27, 34]: 77% | inhibition [28]: 28% | residual activity [29, 34]: 96% | residual activity [30, 34]: 100% | inhibition [31]: 28%

CN(c1ccnc(CNc2nc(Nc3ccc4c(c3)CC(=O)N4)ncc2C(F)(F)F)n1)S(C)(=O)=O [PF-00911705]
inhibition [32]: 0.77% | residual activity [4, 35]: 48% | residual activity [5, 35]: 80% | residual activity [7, 35]: 0% | residual activity [8, 35]: 87% | residual activity [10, 35]: 57% | residual activity [13, 35]: 58% | residual activity [16, 35]: 13% | residual activity [17, 35]: 79% | residual activity [18, 35]: 3.8% | residual activity [19, 35]: 99% | residual activity [22, 35]: 87% | IC50 (Focal adhesion kinase 1): 0.721 µM (not active) | residual activity [24, 35]: 51% | residual activity [27, 35]: 82% | residual activity [29, 35]: 75% | residual activity [30, 35]: 86% | inhibition [33]: 0.19%
